{
  "source": "patent US20200354348A1",
  "about": "“SEMISYNTHETIC AURONES AND METHODS OF USE THEREOF” (University of Kentucky Research Foundation, priority 2018, published 2020)",
  "key": {"[1]": {"tested_on": "PC-3 cells", "assay": "Proliferation inhibition assay, PC-3", "assay_type": "cell-based", "conditions": "Homo sapiens, PC-3, Table 2", "procedure": "Cell Culture. LS174T (colon cancer cells), PC-3 (prostate cancer cells), MCF-7 (beast) and A549 (lung) were cultured in the medium recommended by American Type Culture Collection at 37° C. with 5% CO2 atmosphere in a water jacketed incubator. Ovcar-8 and NCI/ADR-RES are gifts from Dr. Markos Leggas. Alpha-tubulin antibodies, TRITC-conjugated anti-rabbit antibody.\nProliferation inhibition assay. Cancer cells were seeded into 24-well plates at a density of 20,000 cells per well in 1 mL of culture medium and cultured overnight at 37° C. Compounds and the vehicle control DMSO were added to the cells. After 6 days, medium was removed and 100 μL of trypsin was added. Then the cells resuspended in pbs were counted by Vi-CELL XR 2.03 (Beckman Coulter, Inc. USA). The ratio R of the number of viable cells in the compound treatment group to the number of viable cells in DMSO treatment group was taken as relative growth, and the percentage growth inhibition was calculated as: (1−R)*100. For initial testing, compounds were added to the cells at a final concentration 10 μM. Active compounds at 10 μM would be tested at lower concentrations."}, "[2]": {"tested_on": "A549(ATCC)", "assay": "NCI60 screening", "assay_type": "cell-based", "conditions": "Homo sapiens, Non-Small Cell Lung Cancer"}, "[3]": {"tested_on": "OVCAR-4", "assay": "NCI60 screening", "assay_type": "cell-based", "conditions": "Homo sapiens, Ovarian Cancer"}, "[4]": {"tested_on": "A498", "assay": "NCI60 screening", "assay_type": "cell-based", "conditions": "Homo sapiens, Renal Cancer"}, "[5]": {"tested_on": "DND41", "assay": "IC50 in leukemia cell lines", "assay_type": "cell-based", "conditions": "DND41, T-ALL"}, "[6]": {"tested_on": "Jurkat", "assay": "IC50 in leukemia cell lines", "assay_type": "cell-based", "conditions": "Homo sapiens, T-ALL"}, "[7]": {"tested_on": "HBP-ALL", "assay": "IC50 in leukemia cell lines", "assay_type": "cell-based", "conditions": "T-ALL"}, "[8]": {"tested_on": "Nalm-16", "assay": "IC50 in leukemia cell lines", "assay_type": "cell-based", "conditions": "NALM16; Nalm-16, B-ALL"}, "[9]": {"tested_on": "REH", "assay": "IC50 in leukemia cell lines", "assay_type": "cell-based", "conditions": "Homo sapiens, B-ALL"}, "[10]": {"tested_on": "NCI-BL2009", "assay": "IC50 in leukemia cell lines", "assay_type": "cell-based", "conditions": "NCI-BL2009, Normal B-Lymphoblast"}, "[11]": {"tested_on": "tubulin", "assay": "In vitro tubulin polymerization assay", "assay_type": "biochemical", "conditions": "5 μM", "procedure": "In vitro tubulin polymerization assay. The in vitro tubulin polymerization assay was performed by referring tubulin manufacturer's protocol. Briefly, tubulin powder (Cytoskeleton Inc. USA) was dissolved in cold buffer [100 mM PIPES (pH 6.9), 2 mM MgCl2, 1 mM GTP, and 5% glycerol] on ice. Then aliquots (80 μL, 3.75 μg/μL) of the obtained tubulin solution were divided into the wells of a 96-well half-area plate (Corning, USA). After adding DMSO or testing compounds, the plate was mounted to a Spectra MR™ microplate spectrophotometer equipped with a thermal controller allowing to adjust the temperature to 37° C. (DYNEX Technologies Limited, USA). Readings at 350 nm were recorded every 30 s for 1 hour."}, "[12]": {"tested_on": "HEK193T cells", "assay": "In vivo microtubule assembly assay in cells", "assay_type": "cell-based", "procedure": "In vivo microtubule assembly assay. The amount of insoluble polymerized microtubules and soluble tubulin dimers in cells after exposure to compounds were detected following the method by Blagosklommy et al. (Cancer research 55, 4623-4626 (1995). Cells were seeded in 6-well plate at 50% confluency and cultured overnight. DMSO or compounds were added and the cells were incubated for additional 6 hours. The medium was removed and cells were washed with PBS three times followed by addition of lysis buffer [20 mM Tris-HCl (pH 6.8), 1 mM MgCl2, 2 mM EGTA, 20 μg/mL aprotinin, 20 μg/mL leupeptin, 1 mM PMSF, 1 mM orthovanadate, and 0.5% NP40]. The lysates were centrifuged at 12000 g for 10 min to obtain supernatants and pellets, where were mixed with loading buffer and boiled. Then standard western blot analysis against β-tubulin was performed as described by our previous work. (ACS Chem Biol 8, 796-803, doi:10.1021/cb3005353 (2013))."}, "[13]": {"tested_on": "PC-3 cells", "assay": "Immunofluorescence imaging of tubulin networks", "assay_type": "cell-based", "conditions": "α-tubulin immunofluorescence", "procedure": "Tubulin networks were examined by confocal immunofluorescence imaging. Briefly, PC3 cells were placed at a density of 80,000/mL to 24-well plates equipped with round microscope glass cover slides. After culturing at 37° C. for 24 hours, DMSO or compounds were added to the cells and incubated for additional 6 hours. Then the medium was removed and the cells were washed with pbs three times. Primary anti-α-tubulin antibody was added and incubated overnight at 4° C. After additional washing, secondary TRITC-conjugated anti-rabbit antibody was added for 40 min, followed by additional washing and staining with DAPI. Final washing was performed and the cover slides were inverted onto glass slides. Images (40×) were taken using a Nikon confocal microscope with excitation at 557 nm and emission at 576 nm."}},
  "data": [
    {"compound": "CCn1cc(/C=C2\\Oc3cc(OCC#N)ccc3C2=O)c2cc(OC)ccc21", "note": "[Aurone 4a, (Z)-2-((2-((1-Ethyl-5-methoxy-1H-indol-3-yl)methylene)-3-oxo-2,3-dihydrobenzofuran-6-yl)oxy)acetonitrile]", "values": [
      {"measurement": "inhibition at 0.1 µM", "setting": "[1]; 100 nM", "result": "58 ± 11", "unit": "%"},
      {"measurement": "inhibition at 0.3 µM", "setting": "[1]; 300 nM", "result": "93 ± 2.8", "unit": "%"},
      {"measurement": "inhibition at 1 µM", "setting": "[1]; 1 μM", "result": "95 ± 2.5", "unit": "%"},
      {"measurement": "GI50", "setting": "[2]", "result": 5100, "unit": "nM"},
      {"measurement": "GI50", "setting": "[3]", "result": 19000, "unit": "nM"},
      {"measurement": "GI50", "setting": "[4]", "result": 10300, "unit": "nM"},
      {"measurement": "IC50", "setting": "[5]", "result": 210, "unit": "nM"},
      {"measurement": "IC50", "setting": "[6]", "result": 273, "unit": "nM"},
      {"measurement": "IC50", "setting": "[7]", "result": 94, "unit": "nM"},
      {"measurement": "IC50", "setting": "[8]", "result": 272, "unit": "nM"},
      {"measurement": "IC50", "setting": "[9]", "result": 287, "unit": "nM"},
      {"measurement": "IC50", "setting": "[10]", "result": 1250, "unit": "nM"},
      {"measurement": "tubulin polymerization in vitro", "setting": "[11]", "result": "inhibits tubulin polymerization"},
      {"measurement": "tubulin polymerization in cells", "setting": "[12]", "result": "decreased tubulin polymerization"},
      {"measurement": "microtubule structures", "setting": "[13]", "result": "inhibited microtubule structures"}
    ]}
  ]
}
